# Reference: patent US12043632B2, “6-heteroaryloxy benzimidazoles and azabenzimidazoles as JAK2 inhibitors” (Ajax Therapeutics, Inc., priority 2020, dated 2024)
# Target: T1, JAK2 (JH1domain-catalytic, Y1007F,Y1008F) kinase (Homo sapiens, UniProt O60674, Y1007F/Y1008F)
# T1 construct: JAK2 (JH1domain-catalytic, Y1007F,Y1008F) kinase was expressed as N-terminal fusion; made in house; host or cells: transiently transfected HEK293 cells
# Test: JAK2 JH1 Domain Binding Assay
# Settings: qPCR readout
# T1 sequence (O60674 849-1124 Y1007F/Y1008F limits assumed): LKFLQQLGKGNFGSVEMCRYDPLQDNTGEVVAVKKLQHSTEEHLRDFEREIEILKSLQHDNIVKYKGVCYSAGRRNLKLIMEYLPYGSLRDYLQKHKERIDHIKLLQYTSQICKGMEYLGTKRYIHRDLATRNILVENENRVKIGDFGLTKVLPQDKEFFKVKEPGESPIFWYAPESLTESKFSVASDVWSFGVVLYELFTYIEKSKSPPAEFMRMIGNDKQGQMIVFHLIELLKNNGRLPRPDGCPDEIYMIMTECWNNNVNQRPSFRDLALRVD
row,Compound,Kd
1,"CCc1cc(Nc2nc3ncc(Oc4cnn5ccncc45)c(Cl)c3n2C)cc(C(=O)N2CCC2)n1 [Example I-188, Azetidin-1-yl(4-((7-chloro-1-methyl-6-(pyrazolo[1,5-a]pyrazin-3-yloxy)-1H-imidazo[4,5-b]pyridin-2-yl)amino)-6-ethylpyridin-2-yl)methanone]",< 10 nM
2,"CNc1nccn2ncc(Oc3cnc4nc(Nc5ccc(CN6CC(F)C6)c(C(F)(F)F)c5)n(C)c4c3Cl)c12 [Example I-189, 7-chloro-N-(4-((3-fluoroazetidin-1-yl)methyl)-3-(trifluoromethyl)phenyl)-1-methyl-6-((4-(methylamino)pyrazolo[1,5-a]pyrazin-3-yl)oxy)-1H-imidazo[4,5-b]pyridin-2-amine]",10 to 50 nM
3,"CNc1nccn2ncc(Oc3cnc4nc(Nc5ccc(CN6CC(OC)C6)c(C(F)(F)F)c5)n(C)c4c3Cl)c12 [Example I-190, 7-chloro-N-(4-((3-methoxyazetidin-1-yl)methyl)-3-(trifluoromethyl)phenyl)-1-methyl-6-((4-(methylamino)pyrazolo[1,5-a]pyrazin-3-yl)oxy)-1H-imidazo[4,5-b]pyridin-2-amine]",10 to 50 nM
4,"CNc1nccn2ncc(Oc3cnc4nc(Nc5ccc(CN6CC[C@H](OC)C6)c(C(F)(F)F)c5)n(C)c4c3Cl)c12 [Example I-191, (S)-7-chloro-N-(4-((3-methoxypyrrolidin-1-yl)methyl)-3-(trifluoromethyl)phenyl)-1-methyl-6-((4-(methylamino)pyrazolo[1,5-a]pyrazin-3-yl)oxy)-1H-imidazo[4,5-b]pyridin-2-amine]",10 to 50 nM
5,CNc1nccn2ncc(Oc3cnc4nc(Nc5ccc(CN6CC[C@@H](OC)C6)c(C(F)(F)F)c5)n(C)c4c3Cl)c12 [Example I-192],10 to 50 nM
6,"CNc1nccn2ncc(Oc3cnc4nc(Nc5cc(C(F)(F)F)cn(C)c5=O)n(C)c4c3C#N)c12 [Example I-193, 1-methyl-2-((1-methyl-2-oxo-5-(trifluoromethyl)-1,2-dihydropyridin-3-yl)amino)-6-((4-(methylamino)pyrazolo[1,5-a]pyrazin-3-yl)oxy)-1H-imidazo[4,5-b]pyridine-7-carbonitrile]",< 10 nM
7,"Cn1c(Nc2cc(CN3CCOCC3)cc(C(F)(F)F)c2)nc2ncc(Oc3cnn4ccncc34)c(Cl)c21 [Example I-194, 7-chloro-1-methyl-N-(3-(morpholinomethyl)-5-(trifluoromethyl)phenyl)-6-(pyrazolo[1,5-a]pyrazin-3-yloxy)-1H-imidazo[4,5-b]pyridin-2-amine]",< 10 nM
8,"Cn1c(Nc2cc(CN3CC(F)C3)cc(C(F)(F)F)c2)nc2ncc(Oc3cnn4ccncc34)c(Cl)c21 [Example I-195, 7-chloro-N-(3-((3-fluoroazetidin-1-yl)methyl)-5-(trifluoromethyl)phenyl)-1-methyl-6-(pyrazolo[1,5-a]pyrazin-3-yloxy)-1H-imidazo[4,5-b]pyridin-2-amine]",< 10 nM
9,"COC1CN(Cc2cc(Nc3nc4ncc(Oc5cnn6ccncc56)c(Cl)c4n3C)cc(C(F)(F)F)c2)C1 [Example I-196, 7-chloro-N-(3-((3-methoxyazetidin-1-yl)methyl)-5-(trifluoromethyl)phenyl)-1-methyl-6-(pyrazolo[1,5-a]pyrazin-3-yloxy)-1H-imidazo[4,5-b]pyridin-2-amine]",< 10 nM
10,"Cn1c(Nc2cc(CN3CCC(F)(F)C3)cc(C(F)(F)F)c2)nc2ncc(Oc3cnn4ccncc34)c(Cl)c21 [Example I-197, 7-chloro-N-(3-((3,3-difluoropyrrolidin-1-yl)methyl)-5-(trifluoromethyl)phenyl)-1-methyl-6-(pyrazolo[1,5-a]pyrazin-3-yloxy)-1H-imidazo[4,5-b]pyridin-2-amine]",< 10 nM
11,"COC1CCN(Cc2cc(Nc3nc4ncc(Oc5cnn6ccncc56)c(Cl)c4n3C)cc(C(F)(F)F)c2)CC1 [Example I-198, 7-chloro-N-(3-((4-methoxypiperidin-1-yl)methyl)-5-(trifluoromethyl)phenyl)-1-methyl-6-(pyrazolo[1,5-a]pyrazin-3-yloxy)-1H-imidazo[4,5-b]pyridin-2-amine]",< 10 nM
12,"CNc1nccn2ncc(Oc3cnc4nc(Nc5cc(C6CC6)nn(C)c5=O)n(C)c4c3Cl)c12 [Example I-199, 4-((7-chloro-1-methyl-6-((4-(methylamino)pyrazolo[1,5-a]pyrazin-3-yl)oxy)-1H-imidazo[4,5-b]pyridin-2-yl)amino)-6-cyclopropyl-2-methylpyridazin-3(2H)-one]",< 10 nM
13,"Cn1c(C#N)c(C(F)(F)F)cc(Nc2nc3ncc(Oc4cnn5ccncc45)c(Cl)c3n2C)c1=O [Example I-200, 5-((7-chloro-1-methyl-6-(pyrazolo[1,5-a]pyrazin-3-yloxy)-1H-imidazo[4,5-b]pyridin-2-yl)amino)-1-methyl-6-oxo-3-(trifluoromethyl)-1,6-dihydropyridine-2-carbonitrile]",10 to 50 nM
14,"CNc1nccn2ncc(Oc3cnc4nc(Nc5cc(C(F)(F)C(F)(F)F)cn(C)c5=O)n(C)c4c3Cl)c12 [Example I-201, 3-((7-chloro-1-methyl-6-((4-(methylamino)pyrazolo[1,5-a]pyrazin-3-yl)oxy)-1H-imidazo[4,5-b]pyridin-2-yl)amino)-1-methyl-5-(perfluoroethyl)pyridin-2(1H)-one]",< 10 nM
15,"CNc1nccn2ncc(Oc3cnc4nc(Nc5cc(C(F)(F)F)cn(C(C)C)c5=O)n(C)c4c3Cl)c12 [Example I-202, 3-((7-chloro-1-methyl-6-((4-(methylamino)pyrazolo[1,5-a]pyrazin-3-yl)oxy)-1H-imidazo[4,5-b]pyridin-2-yl)amino)-1-isopropyl-5-(trifluoromethyl)pyridin-2(1H)-one]",< 10 nM
16,"Cn1c(Nc2cnc(N3CCC3)c(C(F)(F)F)c2)nc2ncc(Oc3cnn4ccncc34)c(Cl)c21 [Example I-203, N-(6-(azetidin-1-yl)-5-(trifluoromethyl)pyridin-3-yl)-7-chloro-1-methyl-6-(pyrazolo[1,5-a]pyrazin-3-yloxy)-1H-imidazo[4,5-b]pyridin-2-amine]",10 to 50 nM
17,"Cn1c(Nc2cc(CN3CC[C@@H](O)C3)cc(C(F)(F)F)c2)nc2ncc(Oc3cnn4ccncc34)c(Cl)c21 [Example I-204, (R)-1-(3-((7-chloro-1-methyl-6-(pyrazolo[1,5-a]pyrazin-3-yloxy)-1H-imidazo[4,5-b]pyridin-2-yl)amino)-5-(trifluoromethyl)benzyl)pyrrolidin-3-ol]",< 10 nM
18,"Cn1c(Nc2cc(CN3CC[C@H](O)C3)cc(C(F)(F)F)c2)nc2ncc(Oc3cnn4ccncc34)c(Cl)c21 [Example I-205, (S)-1-(3-((7-chloro-1-methyl-6-(pyrazolo[1,5-a]pyrazin-3-yloxy)-1H-imidazo[4,5-b]pyridin-2-yl)amino)-5-(trifluoromethyl)benzyl)pyrrolidin-3-ol]",< 10 nM
19,"CN1CCC(Oc2cc(Nc3nc4ncc(Oc5cnn6ccncc56)c(Cl)c4n3C)cc(C(F)(F)F)c2)CC1 [Example I-206, 7-chloro-1-methyl-N-(3-((1-methylpiperidin-4-yl)oxy)-5-(trifluoromethyl)phenyl)-6-(pyrazolo[1,5-a]pyrazin-3-yloxy)-1H-imidazo[4,5-b]pyridin-2-amine]",< 10 nM
20,"Cn1c(Nc2ccc(CN3CCN(CCO)CC3)c(C(F)(F)F)c2)nc2ncc(Oc3cnn4ccncc34)c(Cl)c21 [Example I-207, 2-(4-(4-((7-chloro-1-methyl-6-(pyrazolo[1,5-a]pyrazin-3-yloxy)-1H-imidazo[4,5-b]pyridin-2-yl)amino)-2-(trifluoromethyl)benzyl)piperazin-1-yl)ethan-1-ol]",< 10 nM
